What all share (type): cell-based
One assay concerns LC-2/AD cells. Put plainly: Growth inhibition of RET-positive non-small cell lung cancer cells LC-2/AD (MTS). The settings on record: Homo sapiens, LC-2/AD non-small cell lung cancer cells, 48 h. How it is done: Growth inhibitory activity of compounds on kinase RET-positive non-small cell lung cancer cells LC-2/AD
The specific test method is given as follows:
1) Medium: DMEM (Dulbecco's modified eagle medium) or RPMI 1640 (containing 10% fetal bovine serum, 100 μg/mL ampicillin, 100 μg/mL streptomycin).
2) Reagents: MTS reaction solution (containing 2 mg/mL of MTS [3-(4,5-dimethylthiazol-2-yl)-5-(3-carboxymethoxyphenyl)-2-(4-sulfophenyl)-2H-tetrazolium, inner Salt]; 100 μg/mL PES (phenazine […])).
3) Compound test: LC-2/AD cells (2×10^4 cells/well) were incubated into a 96-well culture plate, the volume of cell culture fluid was 90 μL, and then 10 μL of the compound at each gradient concentration was added (the highest concentration was 10 μM, which was diluted stepwise by ⅓, and 8 concentration points were set in total; the system contained 0.1% DMSO (dimethyl sulfoxide)). The cell plate with uniformly mixed compound was cultured in a cell culture incubator (37° C.; 5% CO2) for 48 h, then 20 μL of MTS reaction solution was added, uniformly mixed and incubated in the cell culture incubator (37° C.; 5% CO2) for 1-4 hr; OD values at 490 nm were measured by a microplate reader (VARIOSKAN FLASH, Thermo). Three parallels were set in each group of experiments, with 0.1% (a final concentration) DMSO as a negative control, and a medium without cells or compounds as a blank control. The cell growth inhibition rate was calculated by the following formula: Cell growth inhibition rate %=1−(ODexperimental group−ODblank group)/(ODnegative group−ODblank group)×100%
4) IC50 calculation: The semi-inhibitory concentration of the compound acting on cell growth was calculated using GradPad Prism 5 software according to the measured cell growth inhibition rate.

Another assay deals with T1, CCDC6-RET-BaF3 (Homo sapiens, UniProt P07949).
T1 construct: fused on or other part: Q16204 (Coiled-coil domain-containing protein 6)
Description: Growth inhibition of CCDC6-RET-BaF3 cells stably transfected with kinase (MTS). As to conditions: 48 h, read-out: CCDC6-RET (IC50/nM). The gist of the method: (§1)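 IC50 derived from growth inhibition by MTS absorbance at 490 nm after 48 h compound exposure (top 10 μM, 1:3 steps, 8 points, 0.1% DMSO) of 2×10^4 RET-fusion (CCDC6-RET, KIF5B-RET) or wild-type BaF3 cells per well, in triplicate.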

The target in the next assay is T2, KIF5B-RET-BaF3 (Homo sapiens, UniProt P07949).
T2 construct: fused on or other part: P33176 (Kinesin-1 heavy chain)
Description: Growth inhibition of KIF5B-RET-BaF3 cells stably transfected with kinase (MTS). The settings on record: 48 h, read-out: KIF5B-RET (IC50/nM). The gist of the method:
as §1

Another assay relates to wild-type BaF3. Description: Growth inhibition of wild-type BaF3 cells, broad-spectrum toxicity (MTS). As to conditions: Mus musculus, 48 h, read-out: WT Ba/F3 (IC50/nM). The gist of the method:
as §1

T2 sequence (P07949 whole entry, change not shown, the tested form may be a part): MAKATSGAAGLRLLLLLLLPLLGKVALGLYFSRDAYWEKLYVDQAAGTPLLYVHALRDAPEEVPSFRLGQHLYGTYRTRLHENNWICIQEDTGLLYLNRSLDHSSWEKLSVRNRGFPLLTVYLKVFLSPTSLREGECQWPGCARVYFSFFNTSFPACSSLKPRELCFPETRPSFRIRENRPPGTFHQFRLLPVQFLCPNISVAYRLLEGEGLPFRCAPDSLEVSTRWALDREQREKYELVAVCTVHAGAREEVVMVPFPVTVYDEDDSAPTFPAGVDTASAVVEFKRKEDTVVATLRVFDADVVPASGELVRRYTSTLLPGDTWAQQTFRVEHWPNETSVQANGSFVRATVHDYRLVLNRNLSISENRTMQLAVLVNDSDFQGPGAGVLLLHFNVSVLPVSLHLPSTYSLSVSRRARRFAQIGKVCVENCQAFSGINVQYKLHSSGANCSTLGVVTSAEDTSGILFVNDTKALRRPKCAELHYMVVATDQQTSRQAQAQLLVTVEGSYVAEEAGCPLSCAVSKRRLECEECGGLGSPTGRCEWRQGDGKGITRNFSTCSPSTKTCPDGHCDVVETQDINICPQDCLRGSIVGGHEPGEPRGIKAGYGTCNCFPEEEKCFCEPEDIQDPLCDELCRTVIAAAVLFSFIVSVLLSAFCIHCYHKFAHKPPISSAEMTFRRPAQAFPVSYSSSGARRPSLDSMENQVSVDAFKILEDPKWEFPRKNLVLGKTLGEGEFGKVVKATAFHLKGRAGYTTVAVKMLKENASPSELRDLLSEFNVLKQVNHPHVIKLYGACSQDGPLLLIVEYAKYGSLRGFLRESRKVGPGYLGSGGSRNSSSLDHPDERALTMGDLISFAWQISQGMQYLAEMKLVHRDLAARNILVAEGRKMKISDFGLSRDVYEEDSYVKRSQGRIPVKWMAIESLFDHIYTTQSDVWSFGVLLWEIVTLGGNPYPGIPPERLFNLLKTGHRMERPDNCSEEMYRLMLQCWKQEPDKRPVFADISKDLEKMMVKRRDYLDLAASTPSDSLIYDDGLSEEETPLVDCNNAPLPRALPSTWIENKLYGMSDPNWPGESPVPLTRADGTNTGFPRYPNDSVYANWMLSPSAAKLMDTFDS
T1 sequence (P07949 whole entry, change not shown, the tested form may be a part): as above

Consider `COc1cc2nccc(Oc3ccc(NC(=O)C4(C(=O)Nc5ccc(F)cc5)CC4)cc3)c2cc1OC` [Cabozantinib], for which the IC50 with LC-2/AD cells was determined as 4150 nM. In addition, the results for the GI50 on CCDC6-RET-BaF3 and on KIF5B-RET-BaF3 were 226 nM and 302 nM, respectively.

Molecule `Cc1ccc(Oc2nc(-c3ccncc3)nc3c2ncn3C)cc1C(=O)Nc1ccc(CN2CCN(C)CC2)c(C(F)(F)F)c1` [I-n-3] came in with an IC50 in the assay on LC-2/AD cells of 818 nM. For the same molecule, the GI50 on CCDC6-RET-BaF3 came out at 8.38 nM; at KIF5B-RET-BaF3, 40.5 nM.

In the assay with LC-2/AD cells, `Cc1ccc(C(=O)Nc2ccc(CN3CCN(C)CC3)c(C(F)(F)F)c2)cc1Oc1nc(-c2cccnc2)nc2c1cnn2C` [II-m-1] displayed an IC50 of 301 nM. In addition, the results for the GI50 on CCDC6-RET-BaF3 and on KIF5B-RET-BaF3 were 35.2 nM and 8.28 nM, respectively.

In turn, `Cc1ccc(Oc2nc(-c3ccncc3)nc3nn(C)cc23)cc1C(=O)Nc1ccc(CN2CCN(C)CC2)c(C(F)(F)F)c1` [IV-n-2] gave an IC50 in the assay on LC-2/AD cells of 1400 nM. In addition, the GI50 on CCDC6-RET-BaF3 is 172 nM; at KIF5B-RET-BaF3, 173 nM.

With `Cc1ccc(C(=O)Nc2ccc(CN3CCN(C)CC3)c(C(F)(F)F)c2)cc1Oc1cc(-c2ccncc2)nc2c1ccn2C` [V-m-4], the results for the GI50 on CCDC6-RET-BaF3 and at KIF5B-RET-BaF3 were 1240 nM and 811 nM, respectively. The IC50 with wild-type BaF3 came to 1420 nM.

Consider `Cc1ccc(Oc2cc(-c3cccnc3)nc3[nH]ccc23)cc1C(=O)Nc1ccc(CN2CCN(C)CC2)c(C(F)(F)F)c1` [V-n-1], for which the GI50 on CCDC6-RET-BaF3 worked out at 2900 nM; on KIF5B-RET-BaF3, 2120 nM. Moreover, the IC50 in the assay with wild-type BaF3 was 2310 nM.

As for `Cc1ccc(Oc2cc(-c3ccncc3)nc3[nH]ccc23)cc1C(=O)Nc1ccc(CN2CCN(C)CC2)c(C(F)(F)F)c1` [V-n-2], the GI50 on CCDC6-RET-BaF3 was found to be 580 nM; on KIF5B-RET-BaF3, 616 nM. In addition, in the assay on wild-type BaF3, the IC50 stood at 2070 nM.

Turning to `CN1CCN(Cc2ccc(C(=O)Nc3cccc(Oc4nc(-c5ccncc5)nc5ccsc45)c3)cc2C(F)(F)F)CC1` [VI-h-2], the GI50 at CCDC6-RET-BaF3 is 561 nM; at KIF5B-RET-BaF3, 493 nM. Also, the IC50 with wild-type BaF3 was 3900 nM.

As to `Cc1ccc(NC(=O)c2ccc(CN3CCN(C)CC3)c(C(F)(F)F)c2)cc1Oc1nc(-c2cccnc2)nc2ccsc12` [VI-i-1], the GI50 on CCDC6-RET-BaF3 was found to be 1950 nM; on KIF5B-RET-BaF3, 1470 nM. The IC50 in the assay with wild-type BaF3 came to 1530 nM.

Turning to `Cc1ccc(Oc2nc(-c3cccnc3)nc3ccsc23)cc1NC(=O)c1ccc(CN2CCN(C)CC2)c(C(F)(F)F)c1` [VI-j-1], the GI50 on CCDC6-RET-BaF3 was determined as 2700 nM; at KIF5B-RET-BaF3 it was 3960 nM. Besides, the IC50 in the assay on wild-type BaF3 was found to be 3380 nM.

Regarding `Cc1ccc(Oc2nc(-c3ccncc3)nc3ccsc23)cc1NC(=O)c1ccc(CN2CCN(C)CC2)c(C(F)(F)F)c1` [VI-j-2], the GI50 on CCDC6-RET-BaF3 was found to be 3.08 nM; on KIF5B-RET-BaF3, 17 nM. Also, in the assay with wild-type BaF3, the IC50 is 3940 nM.

As to `CN1CCN(Cc2ccc(NC(=O)c3cccc(Oc4nc(-c5cccnc5)nc5ccsc45)c3)cc2C(F)(F)F)CC1` [VI-l-1], the GI50 was determined as 2640 nM on CCDC6-RET-BaF3 and 3220 nM on KIF5B-RET-BaF3. Also, in the assay on wild-type BaF3, the IC50 came out at 4620 nM.

Turning to `Cc1ccc(Oc2nc(-c3cccnc3)nc3ccsc23)cc1C(=O)Nc1ccc(CN2CCN(C)CC2)c(C(F)(F)F)c1` [VI-n-1], the GI50 on CCDC6-RET-BaF3 is 3240 nM; at KIF5B-RET-BaF3, 2840 nM. The IC50 in the assay with wild-type BaF3 was found to be 4190 nM.

Regarding `CN1CCN(Cc2ccc(NC(=O)c3cc(Oc4nc(-c5cccnc5)nc5ccsc45)ccc3Cl)cc2C(F)(F)F)CC1` [VI-o-1], the GI50 was determined as 2170 nM on CCDC6-RET-BaF3 and 2870 nM at KIF5B-RET-BaF3. In the assay with wild-type BaF3, the IC50 is 3990 nM.

For the molecule `Cc1ccc(C(=O)Nc2cc(CN3CCN(C)CC3)cc(C(F)(F)F)c2)cc1Oc1nc(-c2cccnc2)nc2ccsc12` [VI-q-1], the values for the GI50 on CCDC6-RET-BaF3 and on KIF5B-RET-BaF3 were 3570 nM and 3430 nM, respectively. Also, the IC50 with wild-type BaF3 was 4360 nM.

On to `Cc1ccc(C(=O)Nc2cc(CN3CCN(C)CC3)cc(C(F)(F)F)c2)cc1Oc1nc(-c2ccncc2)nc2ccsc12` [VI-q-2], for which the GI50 is 1520 nM at CCDC6-RET-BaF3 and 1470 nM on KIF5B-RET-BaF3. Also, in the assay on wild-type BaF3, the IC50 stood at 1520 nM.

The values above are taken from patent publication US11319322B2, “Substituted aryl ether compound, preparation method thereof, pharmaceutical composition and use thereof” (Xiamen University, priority 2017, dated 2022).
